Data as given in patent publication US20090042942A1 (priority 2005, published 2009).
pIC50: −log10 of the molar value.

These compounds were tested against T1, human muscarinic acetylcholine M3 receptor (M3-ACh) (Homo sapiens, UniProt P20309) (assay: biochemical).
T1 construct: expressed in transfected cells; host or cells: CHO-KL (Chinese Hamster Ovary) cells, membranes
T1 sequence (P20309 whole entry): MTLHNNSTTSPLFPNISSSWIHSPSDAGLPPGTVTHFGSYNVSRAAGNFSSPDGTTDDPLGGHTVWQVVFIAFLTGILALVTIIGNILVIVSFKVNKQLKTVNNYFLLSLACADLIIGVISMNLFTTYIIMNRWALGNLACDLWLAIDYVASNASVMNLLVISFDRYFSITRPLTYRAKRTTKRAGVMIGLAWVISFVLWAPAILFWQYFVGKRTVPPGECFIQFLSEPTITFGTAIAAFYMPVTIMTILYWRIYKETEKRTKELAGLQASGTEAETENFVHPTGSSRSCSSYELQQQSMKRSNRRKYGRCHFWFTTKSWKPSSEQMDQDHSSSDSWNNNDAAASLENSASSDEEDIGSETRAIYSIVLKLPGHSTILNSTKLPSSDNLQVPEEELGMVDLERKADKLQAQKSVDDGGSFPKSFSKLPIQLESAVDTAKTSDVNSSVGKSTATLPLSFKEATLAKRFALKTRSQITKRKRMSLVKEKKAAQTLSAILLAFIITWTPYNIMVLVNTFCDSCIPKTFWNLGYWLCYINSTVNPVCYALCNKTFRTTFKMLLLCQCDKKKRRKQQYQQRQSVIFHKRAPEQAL
Assay type: binding
C[C@@](C(=O)O[C@@H]1CCC[N+](C)(C)C1)(c1ccccc1)C1CCCC1 [Example 5, (3R)-3-{[(2S)-2-Cyclopentyl-2-phenylpropanoyl]oxy}-1,1-dimethylpiperidinium iodide] gave a pIC50 of 8.90. For C[C@@](C(=O)O[C@H]1CCC[N+](C)(C)C1)(c1ccccc1)C1CCCC1 [Example 6, (3S)-3-{[(2S)-2-Cyclopentyl-2-phenylpropanoyl]oxy}-1,1-dimethylpiperidinium iodide], the pIC50 was 7.70. Work on CN1CC[C@H](OC(=O)[C@@](C)(c2ccccc2)C2CCCC2)C1 [Example 1f, (3S)-1-Methylpyrrolidin-3-yl (2R)-2-cyclopentyl-2-phenylpropanoate] yielded a pIC50 of 7.70. Work on CN1CC[C@@H](OC(=O)[C@](C)(c2ccccc2)C2CCCC2)C1 [Example 4a, (3R)-1-Methylpyrrolidin-3-yl (2S)-2-cyclopentyl-2-phenylpropanoate] yielded a pIC50 of 9.10. For CN1CC[C@H](OC(=O)[C@](C)(c2ccccc2)C2CCCC2)C1 [Example 3c, (3S)-1-Methylpyrrolidin-3-yl (2S)-2-cyclopentyl-2-phenylpropanoate], the pIC50 was 8.50. For CN1CC[C@@H](OC(=O)[C@@](C)(c2ccccc2)C2CCCC2)C1 [Example 2a, (3R)-1-Methylpyrrolidin-3-yl (2R)-2-cyclopentyl-2-phenylpropanoate], the pIC50 was 8.10.
